# Source: paper PMC11520566, “Discovery of pyrazole-based analogs as CDK2 inhibitors with apoptotic-inducing activity: design, synthesis and molecular dynamics study” (RSC Advances, 2024)
# “And” between values parts separate entries of the source, which are not always exact repeats. Equal values may be shown once.
# Legend:
# CDK2/cyclin A2 = target: T1, CDK2/cyclin A2 (Homo sapiens, UniProt P24941); assay: In vitro CDK2/cyclin A2 enzyme inhibition assay (ADP-Glo); assay type: biochemical; conditions: for IC50: n = 3, read-out: IC50 against CDK2/cyclin A2; for Relative activity: supplement S1, DMSO = 100, screen at 50 μM; for percentage enzyme activity: at 50 μM
# T1 construct: purchased Promega
# Protocol: The studied pyrazoles 2a–g, 4, 7a–d, 8a and b, 9, and 10 were assessed for their in vitro CDK2/cyclin A2 enzyme inhibition assay at a concentration of 50 μM using the Promega CDK2/cyclinA2 kinase enzyme system coupled with the ADP-Glo assay.[32,33] The percentage enzyme activity was the lowest for five compounds, namely 4, 7a, 7d, 8a, and 9 with values of 24.7%, 17.5%, 11.5%, 27.1% and 14.5%, respectively.
# The in vitro assay of CDK2/cyclin A2 protein kinase was carried out on all the synthesized compounds. The kinase assay was performed in a 96-well white plate with a reaction volume of […]. The reaction was performed in four steps as follows: 2.5 μL of the test compounds or 5% DMSO and 5 μL of CDK2/cyclin A2 enzyme (1.6 ng) was added, and then incubated at room temperature for 30 min. Then, 5 μL of 50 μM ATP. 0.1 μg μL^−1 histone H1 was added and incubated for 10 min. The reaction was stopped by adding 12.5 μL of ADP-Glo™ Reagent and incubated for 40 min. Then 25 μL of kinase detection reagent was added to each well and incubated for 60 min before detection with luminescence (Integration time 0.5–1 s).[25,32,33]
# MCF7 = assay: NCI 60 single dose screen, Breast cancer; assay type: cell-based, human; conditions: single dose 10 μM
# Protocol: (§1) The newly synthesized pyrazoles 2a–g, 7a–d, 8a and b, 9, and 10 were submitted to the National Cancer Institute (NCI) Developmental Therapeutics Program (http://www.dtp.nci.nih.gov) for assessment of their potential antiproliferative activity against a panel of NCI 60 cancer cell lines. All compounds were approved for screening against the approved 60 cancer cell lines at a single dose of 10 μM. The human cancer cell lines were derived from 9 variant cancer types including leukemia, melanoma, lung, colon, CNS, ovarian, renal, prostate and breast cancers. The results are presented as percentage of growth inhibition (GI%) of the screened compounds against the full panel of cell lines.
# (§2) Under sterile conditions, the cell lines were grown in RPMI 1640 media (Gibco, NY, USA) supplemented with 10% fetal bovine serum (Biocell, CA, USA), and […] cell/mL was used to test the growth inhibition activity of the synthesized compounds. The compounds with concentrations ranging from 0.01 to 100 μM were prepared in phosphate buffer saline. Each compound was initially solubilized in dimethyl sulfoxide (DMSO); however, each final dilution contained less than 1% DMSO. Solutions of different concentrations (0.2 mL) were pipetted into the separate well of a microtiter tray in duplicate. Cell culture (1.8 mL) containing a cell population of […] cells per mL was pipetted into each well. Controls, containing only phosphate buffer saline and DMSO at identical dilutions, were also prepared in the same manner. These cultures were incubated in a humidified incubator at 37 °C. The incubator was supplied with 5% CO2 atmosphere. After 48 h, the cells in each well were diluted 10 times with saline and counted using a Coulter counter. The counts were corrected for the dilution.[34]
# [1] = test system: CDK 1, 2, 4, 6 and 9 isoforms; parameters: method as in PMID 18656911; conditions: range over CDK 1, 2, 4, 6 and 9 isoforms; cited from earlier work
# NCI 60 cancer cell lines = assay: NCI 60 single dose screen, mean over full panel; assay type: cell-based, human; conditions: mean over NCI 60 cell lines; single dose 10 μM
# Protocol: as §1, §2
# CDK2 [2] = conditions: cited from earlier work; for IC50: CDK2
# CCRF-CEM = assay: NCI 60 single dose screen, Leukemia; assay type: cell-based, human; conditions: single dose 10 μM
# Protocol: as §1, §2
# MALME-3M = assay: NCI 60 single dose screen, Melanoma; assay type: cell-based, human; conditions: single dose 10 μM
# Protocol: as §1, §2
# SK-MEL-2 = assay: NCI 60 single dose screen, Melanoma; assay type: cell-based, human; conditions: single dose 10 μM
# Protocol: as §1, §2
# T-47D = assay: NCI 60 single dose screen, Breast; assay type: cell-based, human; conditions: single dose 10 μM
# Protocol: as §1
# Under sterile conditions, the cell lines were grown in RPMI 1640 media (Gibco, NY, USA) supplemented with 10% fetal bovine serum (Biocell, CA, USA), and […] cell/mL was used to test the growth inhibition activity of the synthesized compounds. The compounds with concentrations ranging from 0.01 to 100 μM were prepared in phosphate buffer saline. Each compound was initially solubilized in dimethyl sulfoxide (DMSO); however, each final dilution contained less than 1% DMSO. Solutions of different concentrations (0.2 mL) were pipetted into the separate well of a microtiter tray in duplicate. […] After 48 h, the cells in each well were diluted 10 times with saline and counted using a Coulter counter. […]
# HCT-116 cell line = assay: MTT cell viability assay; assay type: cell-based; conditions: Homo sapiens, read-out: IC50 (cytotoxicity, MTT)
# CDK2 [3] = assay: Western blot of CDK2 expression in HCT-116 cells; assay type: cell-based; conditions: 1 μM, 48 h, vs vehicle treated cells
# Text: The method of sodium dodecyl sulfate polyacrylamide gel electrophoresis (SDS-PAGE) is employed to separate proteins based on their size. When combined with western blotting (immunoblotting), both techniques are commonly used to identify the presence and/or relative abundance of a specific protein within a sample containing a complex mixture of proteins.[36] In this process, each sample's total protein content is loaded onto a gel and separated by electrophoresis, allowing proteins to migrate through the gel matrix under the influence of an electric current. To facilitate protein migration, the proteins are initially denatured and given a negative charge by exposure to a detergent like SDS. A molecular weight marker with known-sized bands assists in identifying proteins of interest. […] Typically, the secondary antibody is linked to an enzyme that generates luminescence upon reacting with its substrate. The intensity of the luminescence, directly correlating with the amount of protein that interacted with the antibody, is captured by a Bio-Rad Imager.[36] […]
# HCT-116 cells were treated with either 3 μM of compound 4 and 1 μM of compound 9 and incubated 48 h. The cells were lysed by 1× RIPA buffer containing protease and phosphatase inhibitors to quantify the protein concentration by BCA protein assay. […]
# in vitro = conditions: human
# MDA-MB-468 = assay: NCI 60 single dose screen, Breast cancer; assay type: cell-based, human; conditions: single dose 10 μM
# Protocol: as §1, §2
Compound,Relative activity (CDK2/cyclin A2),melting point [°C],other results
"O=C1NN=C(Nc2ccccc2)C1=NNc1ccccc1 [Compound 2a, 5-(Phenylamino)-4-(2-phenylhydrazono)-2,4-dihydro-3H-pyrazol-3-one]",51.4,215 to 217,GI% (MCF7): 73.8%
"O=C1NN=C(Nc2ccccc2)C1=NNc1ccc(Cl)cc1 [Compound 2c, 4-(2-(4-Chlorophenyl)hydrazono)-5-(phenylamino)-2,4-dihydro-3H-pyrazol-3-one]",59.3,249 to 251,GI% (MCF7): 77.1%
"CC(=O)N(C(C)=O)c1[nH]nc(Nc2ccccc2)c1C#N [Compound 10, N-acetyl-N-(4-cyano-3-(phenylamino)-1H-pyrazol-5-yl)acetamide]",49.9,173 to 175,
"Cc1ccc(NN=C2C(=O)NN=C2Nc2ccccc2)cc1 [Compound 2e, 5-(Phenylamino)-4-(2-(p-tolyl)hydrazono)-2,4-dihydro-3H-pyrazol-3-one]",56.6,251 to 253,mean GI% (NCI 60 cancer cell lines): 6.87%
"O=C1NN=C(Nc2ccccc2)C1=NNc1ccc(O)cc1 [Compound 2d, 4-(2-(4-Hydroxyphenyl)hydrazono)-5-(phenylamino)-2,4-dihydro-3H-pyrazol-3-one]",40.2,257 to 259,mean GI% (NCI 60 cancer cell lines): 27.12%
"CC(=O)c1ccc(NN=C2C(=O)NN=C2Nc2ccccc2)cc1 [Compound 2g, 4-(2-(4-Acetylphenyl)hydrazono)-5-(phenylamino)-2,4-dihydro-3H-pyrazol-3-one]",59.5,265 to 267,
"COc1ccc(NN=C2C(=O)NN=C2Nc2ccccc2)cc1 [Compound 2f, 4-(2-(4-Methoxyphenyl)hydrazono)-5-(phenylamino)-2,4-dihydro-3H-pyrazol-3-one]",62.1,240 to 242,mean GI% (NCI 60 cancer cell lines): 10.24%
NC(=O)c1ccc(-c2ccc(F)c(C(=O)Nc3c[nH]nc3C(=O)Nc3ccc(F)cc3)c2F)cn1 [DC-K2in212 (IV)],,,IC50 (CDK2 [2]): 295 nM; selectivity against CDK2 over CDK1 (CDK2 [2]): 17 fold
"N#Cc1c(Nc2ccccc2)n[nH]c1NCc1ccccc1 [Compound 9, 5-(benzylamino)-3-(phenylamino)-1H-pyrazole-4-carbonitrile]",14.5,136 to 137,percentage enzyme activity (CDK2/cyclin A2): 14.5%; IC50 (CDK2/cyclin A2): 960 nM; GI% (CCRF-CEM): 81.65%; GI% (MALME-3M): 78.10%; GI% (SK-MEL-2): 79.33%; GI% (T-47D): 82.76%; mean GI% (NCI 60 cancer cell lines): 65.90%; IC50 (HCT-116 cell line): 10000 nM; expression of CDK-2 (western blot) (CDK2 [3]): inhibitions in the expression of CDK-2; IC50 (in vitro): 56800 nM
Nc1n[nH]c(N)c1/N=N/c1ccc(O)cc1 [CAN508 (III)],,,IC50 (CDK2 [2]): 350 nM
"O=C1NN=C(Nc2ccccc2)C1=NNc1ccc(F)cc1 [Compound 2b, 4-(2-(4-Fluorophenyl)hydrazono)-5-(phenylamino)-2,4-dihydro-3H-pyrazol-3-one]",55.6,239 to 240,GI% (MCF7): 86.1%; GI% (MDA-MB-468): 72.25%

# The next lines start with results.
Relative activity (CDK2/cyclin A2),melting point [°C],Compound,other results
42.3,265 to 267,"N#Cc1c(Nc2ccccc2)n[nH]c1N=Cc1ccc(F)cc1 [Compound 7a, 5-((4-Fluorobenzylidene)amino)-3-(phenylamino)-1H-pyrazole-4-carbonitrile]",IC50 (CDK2/cyclin A2): 2000 nM and 2010 nM
56.4,,4-Chloro-N-(4-cyano-3-(phenylamino)-1H-pyrazol-5-yl)benzamide [Compound 8a],percentage enzyme activity (CDK2/cyclin A2): 27.1%
11.5,284 to 285,"CN(C)c1ccc(C=Nc2[nH]nc(Nc3ccccc3)c2C#N)cc1 [Compound 7d, 5-((4-(Dimethylamino)benzylidene)amino)-3-(phenylamino)-1H-pyrazole-4-carbonitrile]",percentage enzyme activity (CDK2/cyclin A2): 11.5%; IC50 (CDK2/cyclin A2): 1470 nM
27.1,233 to 235,"COc1ccc(C(=O)Nc2[nH]nc(Nc3ccccc3)c2C#N)cc1 [Compound 8b, N-(4-Cyano-3-(phenylamino)-1H-pyrazol-5-yl)-4-methoxybenzamide]",IC50 (CDK2/cyclin A2): 18700 nM
70.7,273 to 275,"N#Cc1c(Nc2ccccc2)n[nH]c1N=Cc1ccc(Cl)cc1 [Compound 7b, 5-((4-Chlorobenzylidene)amino)-3-(phenylamino)-1H-pyrazole-4-carbonitrile]",
68.6,,5-((4-Methoxybenzylidene)amino)-3-(phenylamino)-1H-pyrazole-4-carbonitrile [Compound 7c],GI% (MCF7): 79.41%
